Measurements: article PMC6008299, “Impact of race on dose selection of molecular-targeted agents in early-phase oncology trials” (British Journal of Cancer, 2018)

How the values were obtained:
Type in all cases: in vivo, human
[1] = test system: tumour [18F]-FDG uptake; assay: [18F]-FDG-PET metabolic response, US (Caucasian) patients; conditions: day 4
Method: (§1) In both studies, the PK profile of DS-7423 was characterised during cycle 1 on days 1 and 8. For PD analysis, glucose, C-peptide, and Akt phosphorylation were measured in platelet-rich plasma collected at predose, 1, 2, 4, 6, and 24 h after dosing on days 1 and 15. Tumour assessment was performed every two cycles using Response Evaluation Criteria in Solid Tumours (RECIST) version 1.1 in both studies. 18F-Fluoro-2-deoxy-D-glucose positron emission tomography ([18F]-FDG) was performed as an exploratory endpoint at baseline and on day 4.[10]

[2] = test system: advanced solid tumours; assay: Tumour assessment RECIST 1.1, Japanese study; conditions: Japan; of 25 patients
Method: as §1

[3] = Pharmacokinetics in US cohort (U101)
Method: as §1
The data cut-off for the primary analysis occurred after all patients had either discontinued the study or completed 6 months of study drug treatment. Descriptive statistics were provided for selected demographic, safety, PK, and PD data by dose and time as appropriate. Descriptive statistics on continuous data included means, medians, standard deviations, and ranges, while categorical data were summarised using frequency counts and percentages. No inferential analysis to compare dose levels was performed due to limited sample sizes. The WinNonlin software was used for PK analysis.

[4] = dose level 4, US cohort (n = 1)
[5] = dose level 8, US cohort (n = 1)
[6] = dose level 16, US cohort (n = 3)
[7] = dose level 160, US cohort (n = 4)
[8] = dose level 240, US cohort (n = 7)

CC(=O)N1CCN(c2nc3c(N4CCOCC4)nc(-c4cnc(N)nc4)nc3n2CC(F)(F)F)C[C@H]1C [DS-7423]
Patients with partial metabolic response ([18F]-FDG-PET) [1]: 48.5%
Patients with partial metabolic response ([18F]-FDG-PET) ([1]; of 33 patients): 16
Patients with tumour shrinkage and durable disease control [2]: 5
Mean AUCtau [3, 4]: 21.86 ng·h/mL
Mean Cmax [3, 4]: 4 ng/mL
T1/2 [3, 4]: 6 to 7 h
Tmax [3, 4]: 2 to 4 h
Mean AUCtau [3, 5]: 131 ng·h/mL
Mean Cmax [3, 5]: 20 ng/mL
T1/2 [3, 5]: 6 to 7 h
Tmax [3, 5]: 2 to 4 h
Mean AUCtau [3, 6]: 133.5 ng·h/mL
Mean Cmax [3, 6]: 20 ng/mL
T1/2 [3, 6]: 6 to 7 h
Tmax [3, 6]: 2 to 4 h
Mean AUCtau [3, 7]: 1180.5 ng·h/mL
Mean Cmax [3, 7]: 59 ng/mL
T1/2 [3, 7]: 6 to 7 h
Tmax [3, 7]: 2 to 4 h
Mean AUCtau [3, 8]: 1458.2 ng·h/mL
Mean Cmax [3, 8]: 92.0 ng/mL
T1/2 [3, 8]: 12 h
Tmax [3, 8]: 2 to 4 h
